Data from US20100204464A1, “ASCORBIC ACID DERIVATIVES, THEIR PREPARATION METHODS, INTERMEDIATES AND USES IN COSMETICS” (NANJING ZHONGSHI CHEMICAL CO., LTD., priority 2007, published 2010).

How the values were obtained:
tyrosinase = molecular target: T1, tyrosinase (Mus musculus, UniProt P11344); experiment: Activity of tyrosinase of B16F10 melanoma cells (L-DOPA, absorbance 490 nm); format: cell-based, murine; details: for Activity of tyrosinase of B16F10 melanoma cell (Mean ± SE): 6 days, control = 100%
T1 construct: endogenous in cells; host or cells: B16F10 murine melanoma cells
T1 sequence (P11344 19-533): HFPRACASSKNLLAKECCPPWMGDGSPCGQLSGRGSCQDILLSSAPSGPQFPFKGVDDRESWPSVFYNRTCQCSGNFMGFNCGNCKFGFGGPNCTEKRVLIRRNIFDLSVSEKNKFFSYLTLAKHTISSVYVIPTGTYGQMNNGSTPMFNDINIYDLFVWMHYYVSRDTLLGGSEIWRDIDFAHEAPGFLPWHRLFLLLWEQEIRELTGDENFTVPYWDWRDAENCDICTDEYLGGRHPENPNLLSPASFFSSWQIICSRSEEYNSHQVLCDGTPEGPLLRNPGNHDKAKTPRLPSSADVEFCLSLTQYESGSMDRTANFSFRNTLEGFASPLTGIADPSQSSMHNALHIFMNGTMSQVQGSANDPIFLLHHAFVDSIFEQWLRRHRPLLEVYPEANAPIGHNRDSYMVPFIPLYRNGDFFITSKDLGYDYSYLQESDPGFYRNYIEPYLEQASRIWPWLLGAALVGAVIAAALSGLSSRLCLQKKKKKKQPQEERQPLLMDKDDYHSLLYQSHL
Experimental: (§1) The effects of preventing melanin from deposition (whitening effects) of 3-O-glycosyl-L-ascorbic acid and 2-O-α-D-glucopyranosyl-L-ascorbic acid (AA-2G) were evaluated by using B16F10 murine melanoma cells. […] The experimental method comprising:
B. Experiment for determining the activity of tyrosinase: to investigate through cell culture the influence of each sample on the activity of tyrosinase playing an important role in the formation of melanin.
B16F10 cells were seeded in the 96-well plate respectively at a density of 5*10^3/well, and incubated under 5% CO2 and at 37° C. for 24 hour, then the supernatant was removed and to each well was added 100 μL culture medium containing different concentration of medicine to be screened and for blank control group, only culture medium was added. Each group was in quadruplicate and the culture medium was renewed every other day. After being incubated for 6 days, each well was washed by PBS without Ca^2+ and Mg^2+, and then 100 μL Triton-X solution (0.5%) was added to each well. After being vibrated in ultrasound for 30 minutes, 50 μL L-DOPA solution (10 mM/L) was added to each well and the samples was kept at 37° C. for 3 hours. The absorbance of each well was measured at a wavelength of 490 nm (reference wavelength: 620 nm) by enzyme-label instrument. Influence rate of the activity of tyrosinase=(average absorbance of the group of medicine to be screened)/(average absorbance of control group)*100%

[1] = test system: B16F10 murine melanoma cells; experiment: MTT experiment: multiplication of melanoma cells; format: cell-based; details: for Multiplication rate of melanoma cell (MTT method, Mean ± SE): 72 h, blank control = 100%; for Concentration at which multiplication of B16F10 cells was significantly inhibited / Concentration with no influence on the multiplication of B16F10 cells: MTT experiment
Experimental: as §1
A. MTT experiment: to investigate the influence of each sample on the multiplication of B16F10 murine melanoma cell through cell culture.
All cells were seeded in the 96-well plate respectively at a density of 1*10^4/well, and incubated under 5% CO2 and at 37° C. for 24 h, then the supernatant was removed and to each well was added […] culture medium containing a certain concentration of medicine. Three concentrations, high, middle and low, were set for each medicine, each concentration in quadruplicate wells. For control group, 200 μL culture medium was directly added and incubated for 72 h. 20 μL MTT solution (5 g/L) was added to each well and the sample was incubated under 5% CO2 and at 37° C. for 4 h, then the supernatant was removed and to each well was added 150 μL DMSO. The sample was vibrated for 10 min and the absorbance of each well was measured at a wavelength of 490 nm (reference wavelength: 620 nm) by enzyme-label instrument. Cell multiplication rate=(average absorbance of each concentration of medicine to be screened)/(average absorbance of control group)*100%.

B16F10 cells [2] = experiment: Quantitative analysis of the content of melanin of B16F10 cells; format: cell-based, murine; details: for Content of melanin of B16F10 cells (Mean ± SE): 6 days, blank control = 100%
Experimental: as §1
D. Quantitative analysis of the content of melanin.
B16F10 cells were seeded in φ 60 mm culture mediums, and incubated under 5% CO2 and at 37° C. for 24 h, then the supernatant was removed and to each medium was added culture medium containing different concentration of medicine and for control group, only culture medium was added. Each group was in triplicate and the culture medium was renewed every other day. After being incubated for 6 days, the cells were digested by 0.25% trypsin/EDTA and collected, then washed by PBS twice. The cells of each group were counted and 0.2 mL redistilled water was added to make the cells suspended for 1 min respectively, then the mixture of 500 μL ethanol and 500 μL ether was added. The cells were placed at room temperature for 15 min and centrifuged at a rate of 3000 rpm for 5 min, then the supernatant was removed and 1 ml NaOH (1 mol/L, containing 10% DMSO) was added to the precipitate. After being placed at 80° C. for 30 min, 4 mL redistilled water was added to dilute the concentration of NaOH to 0.2 mol/L. The absorbance of each group was measured at a wavelength of 475 nm (reference wavelength: 620 nm) by spectrophotometer. The content of melanin=[(absorbance of the group of medicine to be screened/average amount of cells)/(average absorbance of control group/average amount of cells)]*100%

[3] = Stability of aqueous solutions stored 3 months, content by HPLC and color; format: physicochemical; details: for Content (HPLC): initial content 98%; for Color, in words / Content (HPLC), in words: 10%, 5% and 1.0% aqueous solutions
Experimental: In the comparative experiment of stability between 3-O-lactosyl-L-ascorbic acid and 2-O-α-D-glucopyranosyl-L-ascorbic acid (AA-2G), both compounds were prepared as 10%, 5% and 1.0% aqueous solutions respectively and were placed at 0° C., 25° C. and […] respectively for 3 months.

B16F10 cells [4] = experiment: DOPA staining of B16F10 cells (qualitative melanin/tyrosinase); format: cell-based, murine; details: 6 days, 0.5% L-DOPA, photos under microscope
Experimental: as §1
Each group was in quadruplicate and the culture medium was renewed every other day.

OC[C@H]1O[C@@H](Oc2ccc(O)cc2)[C@H](O)[C@@H](O)[C@@H]1O [Arbutin]
Activity of tyrosinase of B16F10 melanoma cell (Mean ± SE) (tyrosinase; 1.0 mM): 50.02 ± 4.04 %
Activity of tyrosinase of B16F10 melanoma cell (Mean ± SE) (tyrosinase; 2.5 mM): 38.07 ± 1.78 %
Activity of tyrosinase of B16F10 melanoma cell (Mean ± SE) (tyrosinase; 5.0 mM): 20.53 ± 1.02 %
Multiplication rate of melanoma cell (MTT method, Mean ± SE) ([1]; 1.0 mM): 113.57 ± 5.57%
Multiplication rate of melanoma cell (MTT method, Mean ± SE) ([1]; 5.0 mM): 102.94 ± 3.64%
Multiplication rate of melanoma cell (MTT method, Mean ± SE) ([1]; 10.0 mM): 76.94 ± 6.08%
Multiplication rate of melanoma cell (MTT method, Mean ± SE) ([1]; 20.0 mM): 46.15 ± 3.41 %
Content of melanin of B16F10 cells (Mean ± SE) (B16F10 cells [2]; 1.0 mM): 50.12 ± 1.97 %
Content of melanin of B16F10 cells (Mean ± SE) (B16F10 cells [2]; 2.5 mM): 36.61 ± 2.15 %
Content of melanin of B16F10 cells (Mean ± SE) (B16F10 cells [2]; 5.0 mM): 20.53 ± 1.02 %

O=C1O[C@H]([C@@H](O)CO)C(OC2O[C@H](CO)[C@@H](O[C@@H]3O[C@H](CO)[C@H](O)[C@H](O)[C@H]3O)[C@H](O)[C@H]2O)=C1O (stereo partly drawn) [VC derivative 2, 3-O-(D-lactosyl)-L-ascorbic acid]
Activity of tyrosinase of B16F10 melanoma cell (Mean ± SE) (tyrosinase; 1.0 mM): 51.01 ± 2.71 %
Activity of tyrosinase of B16F10 melanoma cell (Mean ± SE) (tyrosinase; 2.5 mM): 36.19 ± 2.98 %
Activity of tyrosinase of B16F10 melanoma cell (Mean ± SE) (tyrosinase; 5.0 mM): 20.68 ± 1.34 %
Inhibition of tyrosinase activity compared with kojic acid (tyrosinase; high concentration group (5.0 mM)): no statistical difference
Inhibition of the activity of tyrosinase (tyrosinase; high, middle and low concentrations (5.0 mM, 2.5 mM and 1.0 mM)): significantly inhibited
Inhibition of tyrosinase activity compared with kojic acid (tyrosinase; middle and low concentration groups (2.5 mM, 1.0 mM)): weaker
Inhibition of tyrosinase activity compared with arbutin (tyrosinase; three concentration groups (5.0, 2.5, 1.0 mM)): no statistical difference
Color ([3]; 1% aqueous solution, 0 °C): Colorless
Content (HPLC) ([3]; 1% aqueous solution, 0 °C): 98%
Color ([3]; 1% aqueous solution, 25 °C): Colorless
Content (HPLC) ([3]; 1% aqueous solution, 25 °C): 98%
Color ([3]; 1% aqueous solution, 45 °C): Slight
Content (HPLC) ([3]; 1% aqueous solution, 45 °C): 96%
Color ([3]; 5% aqueous solution, 0 °C): Colorless
Content (HPLC) ([3]; 5% aqueous solution, 0 °C): 98%
Color ([3]; 5% aqueous solution, 25 °C): Colorless
Content (HPLC) ([3]; 5% aqueous solution, 25 °C): 98%
Color ([3]; 5% aqueous solution, 45 °C): Slight
Content (HPLC) ([3]; 5% aqueous solution, 45 °C): 96%
Color ([3]; 10% aqueous solution, 0 °C): Colorless
Content (HPLC) ([3]; 10% aqueous solution, 0 °C): 98%
Color ([3]; 10% aqueous solution, 25 °C): Colorless
Content (HPLC) ([3]; 10% aqueous solution, 25 °C): 98%
Color ([3]; 10% aqueous solution, 45 °C): Slight
Content (HPLC) ([3]; 10% aqueous solution, 45 °C): 94%
Color, in words ([3]; 0° C.): colorless
Content (HPLC), in words ([3]; 0° C.): almost unchanged
Color, in words ([3]; 25° C. and 45° C.): colorless
Content (HPLC), in words ([3]; 25° C. and 45° C.): changed little
Multiplication rate of melanoma cell (MTT method, Mean ± SE) ([1]; 1.0 mM): 72.67 ± 10.59%
Multiplication rate of melanoma cell (MTT method, Mean ± SE) ([1]; 5.0 mM): 79.34 ± 3.99%
Multiplication rate of melanoma cell (MTT method, Mean ± SE) ([1]; 10.0 mM): 76.56 ± 7.67%
Multiplication rate of melanoma cell (MTT method, Mean ± SE) ([1]; 20.0 mM): 66.67 ± 5.48 %
Concentration at which multiplication of B16F10 cells was significantly inhibited [1]: ≥ 10.0 mM
Concentration with no influence on the multiplication of B16F10 cells [1]: lower than 10.0 mM
Degree of DOPA staining compared with blank control group (B16F10 cells [4]): lower degree of staining
Content of melanin of B16F10 cells (Mean ± SE) (B16F10 cells [2]; 1.0 mM): 51.01 ± 2.71 %
Content of melanin of B16F10 cells (Mean ± SE) (B16F10 cells [2]; 2.5 mM): 30.08 ± 3.77 %
Content of melanin of B16F10 cells (Mean ± SE) (B16F10 cells [2]; 5.0 mM): 22.24 ± 1.80 %
Inhibiting melanin synthesis compared with kojic acid and arbutin (B16F10 cells [2]; at the same concentration): no statistical difference

O=c1cc(CO)occ1O [Kojic acid]
Multiplication rate of melanoma cell (MTT method, Mean ± SE) ([1]; 1.0 mM): 92.20 ± 8.28%
Multiplication rate of melanoma cell (MTT method, Mean ± SE) ([1]; 5.0 mM): 63.23 ± 3.66%
Multiplication rate of melanoma cell (MTT method, Mean ± SE) ([1]; 10.0 mM): 43.10 ± 2.31 %
Multiplication rate of melanoma cell (MTT method, Mean ± SE) ([1]; 20.0 mM): 43.55 ± 7.36 %
Content of melanin of B16F10 cells (Mean ± SE) (B16F10 cells [2]; 1.0 mM): 37.20 ± 4.33 %
Content of melanin of B16F10 cells (Mean ± SE) (B16F10 cells [2]; 2.5 mM): 24.15 ± 1.88 %
Content of melanin of B16F10 cells (Mean ± SE) (B16F10 cells [2]; 5.0 mM): 17.65 ± 1.42 %

O=C1O[C@H]([C@@H](O)CO)C(O)=C1O[C@H]1O[C@H](CO)[C@@H](O)[C@H](O)[C@H]1O [VC derivative 1, 2-O-α-D-glucopyranosyl-L-ascorbic acid]
Activity of tyrosinase of B16F10 melanoma cell (Mean ± SE) (tyrosinase; 1.0 mM): 95.99 ± 2.01%
Activity of tyrosinase of B16F10 melanoma cell (Mean ± SE) (tyrosinase; 2.5 mM): 92.40 ± 0.94%
Activity of tyrosinase of B16F10 melanoma cell (Mean ± SE) (tyrosinase; 5.0 mM): 69.90 ± 1.733 %
Inhibiting effect on the activity of tyrosinase (tyrosinase; rather weaker than 3-O-lactosyl-L-ascorbic acid): a certain inhibiting effect
Color, in words ([3]; 0° C.): colorless
Content (HPLC), in words ([3]; 0° C.): almost unchanged
Color, in words ([3]; 25° C. and 45° C.): obviously yellow
Content (HPLC), in words ([3]; 25° C. and 45° C.): decreased
Multiplication rate of melanoma cell (MTT method, Mean ± SE) ([1]; 1.0 mM): 108.66 ± 9.32%
Multiplication rate of melanoma cell (MTT method, Mean ± SE) ([1]; 5.0 mM): 100.98 ± 14.79%
Multiplication rate of melanoma cell (MTT method, Mean ± SE) ([1]; 10.0 mM): 43.21 ± 7.40 %
Multiplication rate of melanoma cell (MTT method, Mean ± SE) ([1]; 20.0 mM): 8.17 ± 0.46 %
Concentration at which multiplication of B16F10 cells was significantly inhibited [1]: ≥ 5.0 mM
Concentration with no influence on the multiplication of B16F10 cells [1]: lower than 5.0 mM
Effect of inhibiting the synthesis of melanin (B16F10 cells [2]): relatively weak
Content of melanin of B16F10 cells (Mean ± SE) (B16F10 cells [2]; 1.0 mM): 96.37 ± 3.63%
Content of melanin of B16F10 cells (Mean ± SE) (B16F10 cells [2]; 2.5 mM): 91.11 ± 1.82%
Content of melanin of B16F10 cells (Mean ± SE) (B16F10 cells [2]; 5.0 mM): 84.19 ± 1.85%
